In US20250296971A1, “GASTRIC INHIBITORY PEPTIDE RECEPTOR LIGANDS” (priority 2021, published 2025):
*1 amine or outer side, *2 acyl side, *3 side chain or, on linkers, in order; H or OH if unused. Where a SMILES comes first, the peptide text is derived from it. Bridges are numbered along the chain shown (N, C = ends). [ ]: non-standard residue; d: D form. The star is where a group is joined. X5 = NC(=O)[C@H](CCCCNC(=O)CN1CCN(CC(=O)O)CCN(CC(=O)O)CCN(CC(=O)O)CC1)NC(=O)CCC(=O)NCCCOCCOCCOCCCN*; X3 = O=C(O)CN1CCN(CC(=O)O)CCN(CC(=O)NCCCOCCOCCOCCCN*)CCN(CC(=O)O)CC1; Trp(5-Br) = N[C@@H](Cc1c[nH]c2ccc(Br)cc12)C(=O)O; Trp(5-Cl) = N[C@@H](Cc1c[nH]c2ccc(Cl)cc12)C(=O)O; Trp(5-F) = N[C@@H](Cc1c[nH]c2ccc(F)cc12)C(=O)O; Trp(6-F) = N[C@@H](Cc1c[nH]c2cc(F)ccc12)C(=O)O; 1Nal = N[C@@H](Cc1cccc2ccccc12)C(=O)O; mXylylene = c1cc(C[*:1])cc(C[*:2])c1; Bta = N[C@@H](Cc1csc2ccccc12)C(=O)O; X7 = c1cc(CSCCN[*:2])cc(C[*:1])c1; Suc = O=C(CCC(=O)[*:2])[*:1]; Ac6c = NC1(C(=O)O)CCCCC1; Api = NC1(C(=O)O)CCNCC1; Thp = NC1(C(=O)O)CCOCC1; Aib = CC(C)(N)C(=O)O

Each compound was assayed against T1, GIPR (CHO-K1-hGIPR cells) (Homo sapiens, UniProt P48546) (assay: FACS binding assay). Conditions: competition with 20 nM GIP-057, 4° C., 1 hour, read-out: pIC50 Category (converted).
T1 construct: host or cells: CHO-K1
T1 sequence (P48546 22-466): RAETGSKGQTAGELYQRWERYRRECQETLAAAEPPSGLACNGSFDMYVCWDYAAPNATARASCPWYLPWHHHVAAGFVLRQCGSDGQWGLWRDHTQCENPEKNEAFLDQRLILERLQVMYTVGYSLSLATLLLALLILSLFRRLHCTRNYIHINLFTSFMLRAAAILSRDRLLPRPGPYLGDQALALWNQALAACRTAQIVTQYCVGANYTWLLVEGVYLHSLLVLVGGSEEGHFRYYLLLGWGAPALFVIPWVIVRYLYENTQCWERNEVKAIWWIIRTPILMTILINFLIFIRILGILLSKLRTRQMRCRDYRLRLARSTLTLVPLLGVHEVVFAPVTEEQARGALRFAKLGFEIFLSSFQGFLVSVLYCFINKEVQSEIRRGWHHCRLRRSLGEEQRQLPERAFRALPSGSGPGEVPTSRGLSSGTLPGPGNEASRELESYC
Method in brief: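 Peptide binding read by flow cytometry as APC-channel median fluorescence, fitted with a four-parameter logistic to yield EC50 or IC50. Cells were hGIPR-transfected CHO-K1 in PBS with 1% FCS, detected with 1 μg/mL APC-streptavidin, 30 min on ice.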

IC50, < 10 nM:
CC[C@H](C)[C@@H]1NC(=O)[C@H](CC(C)C)NC(=O)C(C)(C)NC(=O)[C@@H](NC(=O)[C@H](CC(C)C)NC(=O)[C@H](CCC(=O)O)NC(=O)[C@@H]2CCCN2C(=O)[C@H](Cc2csc3ccccc23)NC(=O)[C@H](Cc2c[nH]c3ccccc23)NC(=O)[C@H](CC(=O)O)NC(C)=O)CSCc2cccc(c2)CSC[C@@H](C(=O)NCCCOCCOCCOCCCNC(=O)CCC(=O)N[C@@H](CCCCNC(=O)CN2CCN(CC(=O)O)CCN(CC(=O)O)CCN(CC(=O)O)CC2)C(N)=O)NC1=O [GIP-075, Ac-Asp-Trp-Bta-Pro-Glu-Leu-[Cys(3MeBn)-Aib-Leu-Ile-Cys]-Ttds-Lys(DOTA)-NH2] (Ac-DW[Bta]PELC[Aib]LIC-X5; linker 7-11 via mXylylene)
CC[C@H](C)[C@@H]1NC(=O)[C@H](CC(C)C)NC(=O)C(C)(C)NC(=O)[C@@H](NC(=O)[C@H](CC(C)C)NC(=O)[C@H](CCC(=O)O)NC(=O)[C@@H]2CCCN2C(=O)[C@H](Cc2c[nH]c3ccc(Cl)cc23)NC(=O)[C@H](Cc2c[nH]c3ccccc23)NC(=O)[C@H](CC(=O)O)NC(C)=O)CSCc2cccc(c2)CSC[C@@H](C(=O)NCCCOCCOCCOCCCNC(=O)CCC(=O)N[C@@H](CCCCNC(=O)CN2CCN(CC(=O)O)CCN(CC(=O)O)CCN(CC(=O)O)CC2)C(N)=O)NC1=O [GIP-076, Ac-Asp-Trp-5Clw-Pro-Glu-Leu-[Cys(3MeBn)-Aib-Leu-Ile-Cys]-Ttds-Lys(DOTA)-NH2] (Ac-DW[Trp(5-Cl)]PELC[Aib]LIC-X5; linker 7-11 via mXylylene)
CC[C@H](C)[C@@H]1NC(=O)[C@H](CC(C)C)NC(=O)C(C)(C)NC(=O)[C@@H](NC(=O)[C@@H](CC(C)C)NC(=O)[C@H](CCC(=O)O)NC(=O)[C@@H]2CCCN2C(=O)[C@H](Cc2cccc3ccccc23)NC(=O)[C@H](Cc2c[nH]c3ccccc23)NC(=O)[C@H](CC(=O)O)NC(C)=O)CSCc2cccc(c2)CSC[C@@H](C(=O)NCCCOCCOCCOCCCNC(=O)CCC(=O)N[C@@H](CCCCNC(=O)CN2CCN(CC(=O)O)CCN(CC(=O)O)CCN(CC(=O)O)CC2)C(N)=O)NC1=O [GIP-078, Ac-Asp-Trp-1Ni-Pro-Glu-leu-[Cys(3MeBn)-Aib-Leu-Ile-Cys]-Ttds-Lys(DOTA)-NH2] (Ac-DW[1Nal]PE[dL]C[Aib]LIC-X5; linker 7-11 via mXylylene)
CC[C@H](C)[C@@H]1NC(=O)[C@H](CC(C)C)NC(=O)C2(CCCCC2)NC(=O)[C@@H](NC(=O)[C@@H](CC(C)C)NC(=O)[C@H](CCC(=O)O)NC(=O)[C@@H]2CCCN2C(=O)[C@H](Cc2cccc3ccccc23)NC(=O)[C@H](Cc2c[nH]c3ccccc23)NC(=O)[C@H](CC(=O)O)NC(C)=O)CSCc2cccc(c2)CSC[C@@H](C(=O)NCCCOCCOCCOCCCNC(=O)CCC(=O)N[C@@H](CCCCNC(=O)CN2CCN(CC(=O)O)CCN(CC(=O)O)CCN(CC(=O)O)CC2)C(N)=O)NC1=O [GIP-080, Ac-Asp-Trp-1Ni-Pro-Glu-leu-[Cys(3MeBn)-Egz-Leu-Ile-Cys]-Ttds-Lys(DOTA)-NH2] (Ac-DW[1Nal]PE[dL]C[Ac6c]LIC-X5; linker 7-11 via mXylylene)
CC[C@H](C)[C@@H]1NC(=O)[C@H](CC(C)C)NC(=O)C(C)(C)NC(=O)[C@@H](NC(=O)[C@@H](CC(C)C)NC(=O)[C@H](CCC(=O)O)NC(=O)[C@@H]2CCCN2C(=O)[C@H](Cc2c[nH]c3ccc(F)cc23)NC(=O)[C@H](Cc2c[nH]c3ccccc23)NC(=O)[C@H](CC(=O)O)NC(C)=O)CSCc2cccc(c2)CSC[C@@H](C(=O)NCCCOCCOCCOCCCNC(=O)CCC(=O)N[C@@H](CCCCNC(=O)CN2CCN(CC(=O)O)CCN(CC(=O)O)CCN(CC(=O)O)CC2)C(N)=O)NC1=O [GIP-081, Ac-Asp-Trp-5Fw-Pro-Glu-leu-[Cys(3MeBn)-Aib-Leu-Ile-Cys]-Ttds-Lys(DOTA)-NH2] (Ac-DW[Trp(5-F)]PE[dL]C[Aib]LIC-X5; linker 7-11 via mXylylene)
CC[C@H](C)[C@@H]1NC(=O)[C@H](CC(C)C)NC(=O)C(C)(C)NC(=O)[C@@H](NC(=O)[C@@H](CC(C)C)NC(=O)[C@H](CCC(=O)O)NC(=O)[C@@H]2CCCN2C(=O)[C@H](Cc2c[nH]c3ccc(Br)cc23)NC(=O)[C@H](Cc2c[nH]c3ccccc23)NC(=O)[C@H](CC(=O)O)NC(C)=O)CSCc2cccc(c2)CSC[C@@H](C(=O)NCCCOCCOCCOCCCNC(=O)CCC(=O)N[C@@H](CCCCNC(=O)CN2CCN(CC(=O)O)CCN(CC(=O)O)CCN(CC(=O)O)CC2)C(N)=O)NC1=O [GIP-082, Ac-Asp-Trp-5Brw-Pro-Glu-leu-[Cys(3MeBn)-Aib-Leu-Ile-Cys]-Ttds-Lys(DOTA)-NH2] (Ac-DW[Trp(5-Br)]PE[dL]C[Aib]LIC-X5; linker 7-11 via mXylylene)
CC[C@H](C)[C@@H]1NC(=O)[C@H](CC(C)C)NC(=O)C(C)(C)NC(=O)[C@@H](NC(=O)[C@@H](CC(C)C)NC(=O)[C@H](CCC(=O)O)NC(=O)[C@@H]2CCCN2C(=O)[C@H](Cc2cccc3ccccc23)NC(=O)[C@H](Cc2c[nH]c3ccc(F)cc23)NC(=O)[C@H](CC(=O)O)NC(C)=O)CSCc2cccc(c2)CSC[C@@H](C(=O)NCCCOCCOCCOCCCNC(=O)CCC(=O)N[C@@H](CCCCNC(=O)CN2CCN(CC(=O)O)CCN(CC(=O)O)CCN(CC(=O)O)CC2)C(N)=O)NC1=O [GIP-083, Ac-Asp-5Fw-1Ni-Pro-Glu-leu-[Cys(3MeBn)-Aib-Leu-Ile-Cys]-Ttds-Lys(DOTA)-NH2] (Ac-D[Trp(5-F)][1Nal]PE[dL]C[Aib]LIC-X5; linker 7-11 via mXylylene)
CC[C@H](C)[C@@H]1NC(=O)[C@H](CC(C)C)NC(=O)C(C)(C)NC(=O)[C@@H](NC(=O)[C@@H](CC(C)C)NC(=O)[C@H](CCC(=O)O)NC(=O)[C@@H]2CCCN2C(=O)[C@H](Cc2cccc3ccccc23)NC(=O)[C@H](Cc2c[nH]c3cc(F)ccc23)NC(=O)[C@H](CC(=O)O)NC(C)=O)CSCc2cccc(c2)CSC[C@@H](C(=O)NCCCOCCOCCOCCCNC(=O)CCC(=O)N[C@@H](CCCCNC(=O)CN2CCN(CC(=O)O)CCN(CC(=O)O)CCN(CC(=O)O)CC2)C(N)=O)NC1=O [GIP-084, Ac-Asp-6Fw-Ni-Pro-Glu-leu-[Cys(3MeBn)-Aib-Leu-Ile-Cys]-Ttds-Lys(DOTA)-NH2] (Ac-D[Trp(6-F)][1Nal]PE[dL]C[Aib]LIC-X5; linker 7-11 via mXylylene)
CC[C@H](C)[C@@H]1NC(=O)[C@H](CC(C)C)NC(=O)C(C)(C)NC(=O)[C@@H](NC(=O)[C@H](CC(C)C)NC(=O)[C@H](CCC(=O)O)NC(=O)[C@@H]2CCCN2C(=O)[C@H](Cc2cccc3ccccc23)NC(=O)[C@H](Cc2c[nH]c3ccccc23)NC(=O)CCC(=O)O)CSCc2cccc(c2)CSC[C@@H](C(=O)NCCCOCCOCCOCCCNC(=O)CCC(=O)N[C@@H](CCCCNC(=O)CN2CCN(CC(=O)O)CCN(CC(=O)O)CCN(CC(=O)O)CC2)C(N)=O)NC1=O [GIP-085, HO-Succinyl-Trp-1Ni-Pro-Glu-Leu-[Cys(3MeBn)-Aib-Leu-Ile-Cys]-Ttds-Lys(DOTA)-NH2] (Suc-W[1Nal]PELC[Aib]LIC-X5; linker 6-10 via mXylylene)
CC[C@H](C)[C@@H]1NC(=O)[C@H](CC(C)C)NC(=O)C2(CCCCC2)NC(=O)[C@@H](NC(=O)[C@@H](CC(C)C)NC(=O)[C@H](CCC(=O)O)NC(=O)[C@@H]2CCCN2C(=O)[C@H](Cc2c[nH]c3ccc(Cl)cc23)NC(=O)[C@H](Cc2c[nH]c3ccccc23)NC(=O)[C@H](CC(=O)O)NC(=O)CCC(=O)NCCCOCCOCCOCCCNC(=O)CN2CCN(CC(=O)O)CCN(CC(=O)O)CCN(CC(=O)O)CC2)CSCc2cccc(c2)CSCCNC1=O [GIP-086, DOTA-Ttds-Asp-Trp-5Clw-Pro-Glu-leu-[Cys(3MeBn)-Egz-Leu-Ile-AET]] ({X3-Suc}-DW[Trp(5-Cl)]PE[dL]C[Ac6c]LI; linker 7-C via X7)
CC[C@H](C)[C@@H]1NC(=O)[C@H](CC(C)C)NC(=O)C2(CCOCC2)NC(=O)[C@@H](NC(=O)[C@@H](CC(C)C)NC(=O)[C@H](CCC(=O)O)NC(=O)[C@@H]2CCCN2C(=O)[C@H](Cc2c[nH]c3ccc(Cl)cc23)NC(=O)[C@H](Cc2c[nH]c3ccccc23)NC(=O)[C@H](CC(=O)O)NC(=O)CCC(=O)NCCCOCCOCCOCCCNC(=O)CN2CCN(CC(=O)O)CCN(CC(=O)O)CCN(CC(=O)O)CC2)CSCc2cccc(c2)CSCCNC1=O [GIP-087, DOTA-Ttds-Asp-Trp-5Clw-Pro-Glu-leu-[Cys(3MeBn)-Thp-Leu-Ile-AET]] ({X3-Suc}-DW[Trp(5-Cl)]PE[dL]C[Thp]LI; linker 7-C via X7)
CC[C@H](C)[C@@H]1NC(=O)[C@H](CC(C)C)NC(=O)C2(CCNCC2)NC(=O)[C@@H](NC(=O)[C@@H](CC(C)C)NC(=O)[C@H](CCC(=O)O)NC(=O)[C@@H]2CCCN2C(=O)[C@H](Cc2c[nH]c3ccc(Cl)cc23)NC(=O)[C@H](Cc2c[nH]c3ccccc23)NC(=O)[C@H](CC(=O)O)NC(=O)CCC(=O)NCCCOCCOCCOCCCNC(=O)CN2CCN(CC(=O)O)CCN(CC(=O)O)CCN(CC(=O)O)CC2)CSCc2cccc(c2)CSCCNC1=O [GIP-088, DOTA-Ttds-Asp-Trp-5Clw-Pro-Glu-leu-[Cys(3MeBn)-Apc-Leu-Ile-AET]] ({X3-Suc}-DW[Trp(5-Cl)]PE[dL]C[Api]LI; linker 7-C via X7)
